The subject of assay [1] is salivary glands (submandibular, parotid). On the set-up: species or system human. The note with it: in vivo.
Assay [2] has as its system salivary glands. The settings on record: in vivo; cited from earlier work.

The values below come from US20250064904A1 (priority 2019, published 2025).

As for botulinum toxin type A, in assay [1], the “uptake of 18F-PSMA in the treated glands” value is listed as “significantly reduced”, the “uptake of 68Ga-PSMA in the glands treated with botulinum toxin” value is recorded as “significantly reduced”, the “uptake of 177Lu-PSMA in the treated glands” value is “significantly reduced” and the “uptake of 225Ac-PSMA-617 in the treated glands” value is recorded as “significantly reduced”. The onset of action result in assay [2] is on record as “around six”.
